Measurements: patent US6211170A, “Azetidinone derivatives for the treatment of HCMV infections” (Boehringer Ingelheim (Canada) Ltd., priority 1998, dated 2001)
Where two headings read alike, the source gives them in different places.

Key:
[1] = target: T1, HCMV NO protease (Human cytomegalovirus, UniProt P16753); experiment: HCMV NO Protease Assay (fluorogenic substrate cleavage); type: biochemical; conditions: HCMV NO protease 100 nM, substrate 5 μM, pH 8, 2.5 h at 30°
T1 construct: HCMV NO protease
T1 sequence (P16753 1-256): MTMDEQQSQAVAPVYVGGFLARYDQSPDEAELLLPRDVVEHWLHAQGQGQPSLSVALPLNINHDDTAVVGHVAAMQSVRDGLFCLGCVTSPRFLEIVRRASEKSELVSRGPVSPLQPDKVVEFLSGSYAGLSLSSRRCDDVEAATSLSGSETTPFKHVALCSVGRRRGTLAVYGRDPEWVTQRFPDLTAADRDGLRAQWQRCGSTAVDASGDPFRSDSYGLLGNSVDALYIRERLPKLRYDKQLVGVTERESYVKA
Procedure: This particular assay determines the ability of a test compound to inhibit the activity (IC50) of HCMV protease. More specifically, in the assay described herein, the inhibitory activity of the test compound is evaluated on the basis of its ability to interfere with the HCMV NO protease cleavage of a fluorogenic peptide substrate which in turn is based on the maturation cleavage site of the enzyme.
1. HCMV NO Protease Assay
Material & Methods: Fluorescence measurements were recorded on a Perkin-Elmer LS-50B spectrofluorimeter equipped with a plate reader accessory. UV measurements were recorded on a Thermomax® microplate reader from Molecular Devices Corporation, Menlo Park, Calif., USA.
HCMV NO protease was assayed with an internally quenched fluorogenic substrate based on the maturation cleavage site (Abz-[…](3-NO2)R--OH, kcat /KM =260 M^-1 s^-1). The fluorescence increase upon cleavage of the Ala-Ser amide bond was monitored using excitation λ=312 nm (slit 2.5 nm) and emission λ=415 nm (slit 5 nm). A protocol adaptable to a 96-well plate format was designed for the determination of IC50 values of inhibitors.
After this period, enzymatic hydrolysis of the fluorogenic substrate in the absence of inhibitor led to about a 30% conversion. Quenching was not required before fluorescence measurement since the total scanning time by the plate reader accessory was brief relative to the duration of the reaction. The aqueous incubation buffer contained 50 mM tris(hydroxymethyl)aminomethane.HCl pH 8, 0.5M Na2 SO4, 50 mM NaCl, 0.1 mM EDTA, 1 mM tris(2-carboxyethyl)phosphine.HCl, 3% v/v DMSO and 0.05% w/v casein. The final concentrations of HCMV NO protease (expressed in terms of total monomer concentration) and substrate were 100 nM and 5 μM respectively. IC50 values were obtained through fitting of the inhibition curve to a competitive inhibition model using SAS NLIN procedure. The mode of inhibition was determined by measurements of the initial rates (in cuvettes) at various substrate concentrations in the buffer as described above. The IC50 values listed in the following tables were obtained according to this assay.

[2] = system: HCMV (strain AD169, ATCC VR-538); experiment: Plaque Reduction Assay (PRA) in HCMV-infected Hs-68 cells; type: cell-based, human cytomegalovirus (HCMV)
Procedure: B. Plaque Reduction Assay (PRA):
Hs-68 cells (ATCC # CRL 1635) were seeded in 12-well plates at 83,000 cells/well in 1 mL of DMEM medium (Gibco Canada Inc.) supplemented with 10% fetal bovine serum (FBS, Gibco Canada Inc.). The plates were incubated for 3 days at 37° to allow the cells to reach 80-90% confluency prior to the assay.
The medium was removed from the cells by aspiration. The cells were then infected with approximately 50 PFU of HCMV (strain AD169, ATCC VR-538) in DMEM medium supplemented with 5% inactivated FBS (assay medium). (DMEM medium is commercially available and has been described by R. Dulbecco et al., Virology 1959, 8, 396.) The virus was allowed to adsorb to cells for 2 h at 37°. Following viral adsorption, the medium was removed from the wells by aspiration. The cells were then incubated with or without 1 mL of appropriate concentrations of test reagent in assay medium. Occasionally, test compounds were added 24 h post-infection. After 4 days of incubation at 37°, the medium was exchanged with fresh medium containing test compound and 4 days later the cells were fixed with 1% aqueous formaldehyde and stained with a 2% violet solution in 20% ethanol in water. Microscopic plaques were counted using a stereomicroscope. Drug effects were calculated as a percent reduction in the number of plaques in the presence of each drug concentration compared to the number observed in the absence of drug. Ganciclovir was used as a positive control in all experiments.

[3] = Cytotoxicity, tetrazolium salt (MTT) metabolic assay; type: cell-based; conditions: cytotoxic effects, read-out: TC50 (the source's name)
Procedure: Cytotoxic effects noted as TC50 in the following tables were determined according to the tetrazolium salt (MTT) metabolic assay, F. Denizot and F. Lang, J. Immun. Meth., 1986, 89, 271.

[4] = Human betaherpesvirus 5, Hs68, 192 h, plaque reduction, HCMV strain AD169, Hs-68 cells, 8 days, read-out: EC50
[5] = Human betaherpesvirus 5, AD169, Hs68, 192 h

Compound | IC50 [1] | EC50 [2, 4] | CC50 [3] | EC50 [2, 5]
CC[C@@H](NC(=O)N1C(=O)C[C@@H]1COc1ccccn1)c1ccccc1 [Entry 101] | 8.4 µM | 55 µM | 151 µM | –
CC[C@@H](NC(=O)N1C(=O)C[C@@H]1CSc1ncccn1)c1ccccc1 [Entry 104, 2-oxo-4(R)-(pyrimidin-2-ylsulfanylmethyl)azetidine-1-carboxylic acid (1(R)-phenylpropyl)amide] | 2.8 µM | 120 µM | > 209 µM | –
CC[C@@H](NC(=O)N1C(=O)C[C@@H]1CSc1nc2ccccc2o1)c1ccccc1 [Entry 141] | 0.8 µM | – | > 26 µM | 22 µM
CC[C@@H](NC(=O)N1C(=O)[C@@H](C)[C@@H]1CSc1ccccn1)c1ccccc1 [Entry 108] | 1.2 µM | 180 µM | > 250 µM | –
CC[C@@H](NC(=O)N1C(=O)[C@@H](C)[C@@H]1CSc1ccncc1)c1ccccc1 [Entry 118] | 1.6 µM | 55 µM | 199 µM | –
CC[C@@H](NC(=O)N1C(=O)C[C@@H]1CSc1ccncc1)c1ccccc1 [Entry 107] | 2 µM | 92 µM | > 233 µM | –
CC[C@@H](NC(=O)N1C(=O)[C@@H](C)[C@@H]1COc1ccccc1)c1ccccc1 [Entry 102] | 2.7 µM | > 250 µM | > 250 µM | –
O=C(NC[C@H]1CC(=O)N1C(=O)NCc1ccccc1)c1ccccc1 [Entry 204] | 2.6 µM | 120 µM | > 250 µM | –
CC[C@@H](NC(=O)N1C(=O)C[C@@H]1COC(=O)c1ccc2ccccc2c1)c1ccccc1 [Entry 133] | 0.95 µM | – | > 26 µM | 18 µM
CN(Cc1ccc(C(F)(F)F)cc1)C(=O)N1C(=O)C[C@@H]1CSc1ccncc1 [Entry 311] | 0.6 µM | 250 µM | > 250 µM | –
CC[C@@H](NC(=O)N1C(=O)[C@@H](C)[C@@H]1CSc1ccc(OC)cc1)c1ccccc1 [Entry 122] | 4.8 µM | > 250 µM | > 250 µM | –
COC(=O)c1ccc(CN(C)C(=O)N2C(=O)C[C@@H]2CSc2ncccn2)cc1 [Entry 302] | 3.9 µM | 170 µM | > 250 µM | –
CN(Cc1ccc(C(F)(F)F)cc1)C(=O)N1C(=O)C[C@@H]1CSc1nnnn1C [Entry 320] | 0.47 µM | 69 µM | > 250 µM | –
CC[C@@H](NC(=O)N1C(=O)[C@@H](C)[C@@H]1CSc1nc2ccccc2s1)c1ccccc1 [Entry 109] | 1.2 µM | 160 µM | > 250 µM | –
CN(Cc1ccc(C(F)(F)F)cc1)C(=O)N1C(=O)C[C@@H]1CSc1ncccn1 [Entry 301] | 1.7 µM | 95 µM | > 250 µM | –
CC[C@@H](NC(=O)N1C(=O)C[C@@H]1CSc1nc2ccccc2s1)c1ccccc1 [Entry 106] | 3.3 µM | > 250 µM | > 250 µM | –
CC[C@@H](NC(=O)N1C(=O)C[C@@H]1CSc1nc2ncccc2s1)c1ccccc1 [Entry 139] | 0.8 µM | – | > 53 µM | > 53 µM

Compound | IC50 [1] | EC50 [2, 4] | CC50 [3] | EC50 [2, 5]
CC[C@@H](NC(=O)N1C(=O)[C@@H](C)[C@@H]1CSc1nc2ccccc2o1)c1ccccc1 [Entry 112] | 0.94 µM | 140 µM | > 250 µM | –
CC[C@@H](NC(=O)N1C(=O)[C@@H](C)[C@@H]1CSc1nnnn1C)c1ccccc1 [Entry 119] | 1.4 µM | 80 µM | > 250 µM | –
CC[C@@H](NC(=O)N1C(=O)[C@@H](C)[C@@H]1CSc1nc2ncccc2s1)c1ccccc1 [Entry 125] | 1.1 µM | 140 µM | > 250 µM | –
CC[C@@H](NC(=O)N1C(=O)C[C@@H]1COC(=O)c1cccc2ccccc12)c1ccccc1 [Entry 134] | 0.46 µM | – | > 13 µM | 9 µM
CC[C@@H](NC(=O)N1C(=O)[C@@H](C)[C@@H]1CSc1nc(C)cc(C)n1)c1ccccc1 [Entry 126] | 2.8 µM | 25 µM | > 63 µM | –
CN(C)C(=O)c1ccc(CN(C)C(=O)N2C(=O)C[C@@H]2CSc2ncccn2)cc1 [Entry 305] | 14 µM | 210 µM | > 250 µM | –
CC[C@@H](NC(=O)N1C(=O)[C@@H](C)[C@@H]1CSC1CCCC1)c1ccccc1 [Entry 121] | 4.3 µM | 150 µM | > 250 µM | –
O=C1C[C@H](CSc2ccccc2)N1C(=O)NCc1ccncc1 [Entry 201, 2-oxo-4(R)-(phenylsulfanylmethyl) azetidine-1-carboxylic acid (pyridin-4-ylmethyl)amide] | 7.9 µM | 75 µM | > 270 µM | –
CC[C@@H](NC(=O)N1C(=O)C[C@@H]1CSC)c1ccccc1 [Entry 127, 4(R)-(methylsulfanyl)methyl-2-oxoazetidine-1-carboxylic acid (1(R)-phenylpropyl)amide] | 3.8 µM | > 250 µM | > 250 µM | –
CC[C@@H](NC(=O)N1C(=O)C[C@@H]1COC(C)=O)c1ccccc1 [Entry 132] | 3 µM | 210 µM | > 250 µM | –
CC[C@@H](NC(=O)N1C(=O)C[C@@H]1CSc1nc(C)cc(C)n1)c1ccccc1 [Entry 105] | 4.6 µM | 88 µM | > 250 µM | –
CN(Cc1ccc2c(c1)OCO2)C(=O)N1C(=O)C[C@@H]1CSc1ncccn1 [Entry 317] | 9 µM | 140 µM | > 249 µM | –
CN(Cc1ccc(C(F)(F)F)cc1)C(=O)N1C(=O)C[C@@H]1CSc1nccn1C [Entry 314] | 5.5 µM | > 250 µM | > 250 µM | –
COC(=O)c1ccc(CN(C)C(=O)N2C(=O)C[C@@H]2CSc2nccc(C)n2)cc1 [Entry 307] | 3.5 µM | 105 µM | > 250 µM | –
CC[C@@H](NC(=O)N1C(=O)[C@@H](C)[C@@H]1CSc1ccoc1C)c1ccccc1 [Entry 115] | 4.2 µM | 85 µM | > 250 µM | –
CC[C@@H](NC(=O)N1C(=O)C[C@@H]1CN1CCCCC1)c1ccccc1 [Entry 206, 2-oxo-4(R)-(piperidin-1-ylmethyl)azetidine-1-carboxylic acid (1(R)-phenylpropyl)amide] | 3.7 µM | > 250 µM | > 250 µM | –
CC[C@@H](NC(=O)N1C(=O)[C@@H](C)[C@@H]1CSc1nccc(C)n1)c1ccccc1 [Entry 123] | 0.98 µM | 150 µM | > 250 µM | –
